Experimental data as given in ChEMBL document CHEMBL3046135, “Iodine (III)-mediated synthesis of some 2-aryl/hetarylbenzoxazoles as antibacterial/antifungal agents” (2010).
Active and inactive are the calls of the source. No cut-off for these calls is given here.

How the values were obtained:
Assay type in all cases: functional
Escherichia coli [1] = assay: Antibacterial activity against Escherichia coli MTCC 51 at 100 ug/ml after 24 hr by agar well diffusion method
Aspergillus niger [2] = assay: Antifungal activity against Aspergillus niger at 50 ug/ml after 96 hr
Bacillus subtilis [3] = assay: Antibacterial activity against Bacillus subtilis MTCC 121 at 100 ug/ml after 24 hr by agar well diffusion method
Pseudomonas putida [4] = assay: Antibacterial activity against Pseudomonas putida at 100 ug/ml after 24 hr by agar well diffusion method
Bacillus subtilis [5] = assay: Antibacterial activity against Bacillus subtilis MTCC 121 at 10 ug/ml after 24 hr by agar well diffusion method
[6] = system: Geobacillus stearothermophilus; assay: Antibacterial activity against Geobacillus stearothermophilus MTCC 8508 at 100 ug/ml after 24 hr by agar well diffusion method
Pseudomonas putida [7] = assay: Antibacterial activity against Pseudomonas putida at 10 ug/ml after 24 hr by agar well diffusion method
Aspergillus niger [8] = assay: Antifungal activity against Aspergillus niger at 10 ug/ml after 96 hr
Escherichia coli [9] = assay: Antibacterial activity against Escherichia coli MTCC 51 at 50 ug/ml after 24 hr by agar well diffusion method
Aspergillus flavus [10] = assay: Antifungal activity against Aspergillus flavus at 100 ug/ml after 96 hr
[11] = system: Geobacillus stearothermophilus; assay: Antibacterial activity against Geobacillus stearothermophilus MTCC 8508 at 10 ug/ml after 24 hr by agar well diffusion method
Aspergillus flavus [12] = assay: Antifungal activity against Aspergillus flavus at 50 ug/ml after 96 hr
Aspergillus niger [13] = assay: Antifungal activity against Aspergillus niger at 100 ug/ml after 96 hr
Pseudomonas putida [14] = assay: Antibacterial activity against Pseudomonas putida at 50 ug/ml after 24 hr by agar well diffusion method
[15] = system: Geobacillus stearothermophilus; assay: Antibacterial activity against Geobacillus stearothermophilus MTCC 8508 at 50 ug/ml after 24 hr by agar well diffusion method
Aspergillus flavus [16] = assay: Antifungal activity against Aspergillus flavus at 10 ug/ml after 96 hr
Bacillus subtilis [17] = assay: Antibacterial activity against Bacillus subtilis MTCC 121 at 50 ug/ml after 24 hr by agar well diffusion method
Escherichia coli [18] = assay: Antibacterial activity against Escherichia coli MTCC 51 at 10 ug/ml after 24 hr by agar well diffusion method

SMILES | diameter of the inhibition zone (DIZ) (Escherichia coli [1]) | inhibition at 50 µg/mL (Aspergillus niger [2]) | diameter of the inhibition zone (DIZ) (Bacillus subtilis [3]) | diameter of the inhibition zone (DIZ) (Pseudomonas putida [4]) | diameter of the inhibition zone (DIZ) (Bacillus subtilis [5]) | diameter of the inhibition zone (DIZ) [6] | diameter of the inhibition zone (DIZ) (Pseudomonas putida [7]) | inhibition at 10 µg/mL (Aspergillus niger [8]) | diameter of the inhibition zone (DIZ) (Escherichia coli [9]) | inhibition at 100 µg/mL (Aspergillus flavus [10]) | diameter of the inhibition zone (DIZ) [11] | inhibition at 50 µg/mL (Aspergillus flavus [12]) | inhibition at 100 µg/mL (Aspergillus niger [13]) | diameter of the inhibition zone (DIZ) (Pseudomonas putida [14]) | diameter of the inhibition zone (DIZ) [15] | inhibition at 10 µg/mL (Aspergillus flavus [16]) | diameter of the inhibition zone (DIZ) (Bacillus subtilis [17]) | diameter of the inhibition zone (DIZ) (Escherichia coli [18])
Cc1ccsc1-c1nc2cc(Cl)ccc2o1 [5-CHLORO-2-(3-METHYLTHIOPHEN-2-YL)BENZO[D]OXAZOLE] | 33.17% | 47% | 29.33% | 35.06% | 10.34% | 31.84% | 12.12% | 17.5% | 24.56% | 84.2% | 12.66% | 36.8% | 76.5% | 25.67% | 23.44% | 21.1% | 21.67% | 10.33%
Clc1ccc2oc(-c3cccs3)nc2c1 | 43.33% | 5.88% | 41.66% | 44.77% | 19.66% | 39.66% | 19.66% | 4.89% | 31.77% | 84.2% | 21.33% | 47.4% | 11.8% | 33.66% | 32.66% | 21.1% | 30.53% | 17.74%
Cc1ccc(-c2nc3cc(Cl)ccc3o2)s1 [5-CHLORO-2-(5-METHYLTHIOPHEN-2-YL)BENZO[D]OXAZOLE] | 31.74% | 63.9% | 16.66% | 32.66% | inactive | 18.47% | inactive | 12.4% | 17.44% | 37.5% | inactive | 24.9% | 71.9% | 18.33% | 12.66% | 13.7% | 10.33% | inactive
Clc1ccc2oc(-c3ccccc3)nc2c1 | 45.33% | 5.88% | 36.74% | 76.33% | 10.21% | 36.44% | 15.21% | 8.93% | 33.87% | 86.2% | 10.66% | 51.4% | 21.9% | 57.66% | 27.21% | 29% | 26.47% | 19.92%
c1csc(-c2nc3ccccc3o2)c1 | 36.66% | 64.7% | 31.72% | 33.33% | 12.66% | 31.33% | 9.66% | 41.7% | 26.28% | 88.5% | 10.33% | 63.1% | 82.3% | 24.34% | 20.43% | 21.1% | 21.26% | 11.66%
Clc1ccc2oc(-c3cccnc3)nc2c1 | 36.74% | 41.7% | 33.33% | 35.33% | 13.33% | 32.33% | 9.66% | 17.6% | 27.33% | 78.9% | 11.33% | 26.3% | 76.5% | 25.33% | 21.43% | 15.8% | 22.16% | 12.66%
